Here are results for 12 molecules from patent US12606541B2, “PPARg modulators and methods of use” (Eisai R&D Management Co., Ltd., priority 2020, dated 2026).

Read-outs that look alike come from different tables or passages of the source.

Test [1] relates to UM-UC-9 engineered cells. The experiment in a line: Cell proliferation / short-term viability assay, CellTiter-Glo 144 h. Format: cell-based, human. The following applies: read-out: CTGlo 144 h UMUC9.5, G150. The method, then:
Cell Seeding for Proliferation Assay
UM-UC-9 engineered cells were cultured in Dulbecco's Modified Eagle Medium (DMEM) supplemented with 10% FBS, 25 mM glucose (high glucose), 4.0 mM L-glutamine, 2.0 mM GlutaMAX™, 1.0 mM pyruvate, 1.0% non-essential amino acids (NEAA) in a 95% humidified incubator at 37° C. with 5% CO2. Cell banks of UM-UC-9 engineered assay-ready cells (ARCs) were prepared from a very active growth stage. Vials of ARCs containing approximately 5×10^6 cells per vial were stored in liquid nitrogen vapor phase cryostorage until use.
For making assay plates, ARCs were recovered from cryostorage, strained in a […] cell strainer, verified for cell viability >90% and counted using a cell counter (Cellometer Auto 1000, Nexelom). Each cell line was seeded into 384-well plates (50 μl/well) using DMEM medium at a density previously determined to be in log growth phase 7 days post-seeding (500 cells/well) using a bulk reagent dispenser (Multidrop™ Combi, Thermo Scientific) with a large-bore plastic-tip cassette pre-sanitized with 70% ethanol. One plate of cells was designated as the pretreatment time-zero (T0) control. Freshly seeded plates were allowed to sit lidded for 30 minutes within a biosafety cabinet for cells to settle distributed within the plate wells uniformly and then placed into an automated incubator (STX110, Liconic) at 37° C., 5% CO2, and 95% relative humidity.
Preparation of Test Compound in Assay-Ready Plate
Compounds were stored in a low-temperature sample archive as 10 mM dimethyl sulfoxide (DMSO) solutions at −20° C. under reduced humidity (−45° C. dew point) and protected from light. All samples in the automated archive are stored in 2D barcoded polypropylene tubes, tracked through a laboratory information management system (LIMS), and have been verified for identity and purity by NMR (Chemistry, H3 Biomedicine) and by LCMS (Analytical Chemistry, H3 Biomedicine) at the time of sample registration. Identity by mass matching and purity are again verified at the time of sample request fulfillment by redundant LCMS methods (acidic and basic separation protocols; Analytical Chemistry, H3 Biomedicine). Samples retrieved from low-temperature archive storage were solubilized by heated sonication (Bransonic® Ultrasonic Bath, Branson), transferred (Microlab Starlet, Hamilton) and serially-diluted (Viaflo Assist, Integra) by low-volume liquid handlers, and tracked in LIMS by automation log files to create a ID barcoded master dose-response plate (MDR) to serve as a standard source for all assay-ready plates (ARP) used within an experiment. ARPs prepared by acoustic transfer (ATS-100, EDC) of nL volumes from the MDR source were heat-sealed (PlateLoc, Agilent) and stored at −20° C. prior to use (<7 days from production). Tracking of liquid transfers via acoustic dispenser log files were used to update the LIMS system for all ARP plate maps.
Measurement of Pretreatment Control Cells and Sample Anti-Proliferative Effects on Treated Cells
On day 0 (pretreatment cells) or day 7 (treated cells), a cell proliferation assay was performed using an automated robotic assay platform (ACell, High-Res Biosolutions). Cell ARP's were removed from incubation, their plate lid discarded, and using a bulk reagent dispenser (Multidrop™ Combi, Thermo Scientific with a small-bore metal-tip cassette) 25 μL (1/2 volume) of Cell Titer-Glo® 2.0 Cell Viability Assay reagent (Promega) was added to wells of columns 1-23 (column 24 will be used as plate background or positive control). Cell ARP's were incubated at room temperature in an automation hotel position for a total of 1.0 minute while the next plate was delivered to the bulk reagent dispenser and then lid-free cell ARP's were returned to incubate at 37° C. for 2.5 hours. […]
On the technique in general: In ATP-based viability assays light output follows the ATP content of the culture.

Test [2] has as its target T1, His6-TEV-PPARγ-(234-505) (Homo sapiens, UniProt P37231).
T1 construct: The His6-TEV-PPARγ-(234-505) protein for assay was expressed and purified; TEV cleavage site (N); made in house
T1 sequence (P37231 234-505): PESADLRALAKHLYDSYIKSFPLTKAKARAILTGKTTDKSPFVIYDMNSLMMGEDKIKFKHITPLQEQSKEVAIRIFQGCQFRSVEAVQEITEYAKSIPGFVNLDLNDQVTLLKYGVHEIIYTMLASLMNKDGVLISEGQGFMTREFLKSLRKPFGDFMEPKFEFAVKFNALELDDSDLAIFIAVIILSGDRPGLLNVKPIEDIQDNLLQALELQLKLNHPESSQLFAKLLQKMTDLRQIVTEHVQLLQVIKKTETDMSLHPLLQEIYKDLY
The experiment in a line: TR-FRET Assay to Measure Co-R Peptide Recruitment to PPARγ. Format: biochemical. The following applies: Co-R peptide (SMRT-ID2) recruitment; top final concentration 20 μM; read-out: TR-FRET i-Ag; AC50. The gist of the method: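 Corepressor recruitment is measured by adding terbium-labeled anti-His antibody and FITC SMRT-ID2 peptide, at 5 and 200 nM final, after a 20-minute room-temperature protein–compound incubation. After one further hour, signal is converted to percent response between DMSO and 500 nM T0070907 wells.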
A general note: TR-FRET usually uses a lanthanide donor and a delayed reading to cut background.

Take `COc1cc(-c2cc(C(=O)N3[C@@H]4CC[C@H]3C[C@H](C(=O)NC3CCC5(CCO5)CC3)C4)n[nH]2)c(F)cn1` (mixture of isomers) [Example 297, (1R,3S,5S)-8-[5-(5-fluoro-2-methoxypyridin-4-yl)-1H-pyrazole-3-carbonyl]-N-[1-oxaspiro[3.5]nonan-7-yl]-8-azabicyclo[3.2.1]octane-3-carboxamide]: the IC50 in test [1] (Homo sapiens, UM-UC-9, 144 h) was 383 nM. The AC50 in test [2] was found to be 120 nM.

With `Cc1cc(-c2cc(C(=O)N3CC[C@@H](C(=O)NC4CCC5(CCO5)CC4)CC34CC4)n[nH]2)ncn1` (mixture of isomers) [Example 300-A, (R)-4-(5-(6-methylpyrimidin-4-yl)-1H-pyrazole-3-carbonyl)-N-(1-oxaspiro[3.5]nonan-7-yl)-4-azaspiro[2.5]octane-7-carboxamide], the IC50 in test [1] (Homo sapiens, UM-UC-9, 144 h) is greater than 4000 nM. For the same molecule, in test [2], the AC50 amounted to 18000 nM.

On to `COc1cc(-c2cc(C(=O)N3C4CCC3CC(C(=O)NC3CCC(C(F)(F)F)N(C)C3)C4)n[nH]2)c(F)cn1` (mixture of isomers) [Example 306-A], for which, in test [1] (Homo sapiens, UM-UC-9, 144 h), the IC50 was determined as 78.8 nM. In addition, the AC50 in test [2] was determined as 13.9 nM.

In the case of `COc1cc(-c2cc(C(=O)N3[C@@H]4CC[C@H]3C[C@H](C(=O)NC3CCC5(CC3)OCC5(F)F)C4)n[nH]2)c(F)cn1` (mixture of isomers) [Example 307, (1R,3s,5S)—N-(3,3-difluoro-1-oxaspiro[3.5]nonan-7-yl)-8-(5-(5-fluoro-2-methoxypyridin-4-yl)-1H-pyrazole-3-carbonyl)-8-azabicyclo[3.2.1]octane-3-carboxamide], the IC50 in test [1] (Homo sapiens, UM-UC-9, 144 h) worked out at 173 nM. Moreover, the AC50 in test [2] was determined as 22.1 nM.

On to `CCOC1(C(F)(F)F)CCC(NC(=O)[C@H]2CCN(C(=O)c3cc(-c4cc(C)ncn4)[nH]n3)C3(CC3)C2)CC1` (mixture of isomers) [Example 308-A, (S)—N-(4-ethoxy-4-(trifluoromethyl)cyclohexyl)-4-(5-(6-methylpyrimidin-4-yl)-1H-pyrazole-3-carbonyl)-4-azaspiro[2.5]octane-7-carboxamide], for which the IC50 in test [1] (Homo sapiens, UM-UC-9, 144 h) amounted to 5.6 nM. Moreover, the AC50 in test [2] stood at 2.8 nM.

As to `CCOC1(C(F)(F)F)CCC(NC(=O)[C@@H]2CCN(C(=O)c3cc(-c4cc(C)ncn4)[nH]n3)C3(CC3)C2)CC1` (mixture of isomers) [Example 308-B, (R)—N-(4-ethoxy-4-(trifluoromethyl)cyclohexyl)-4-(5-(6-methylpyrimidin-4-yl)-1H-pyrazole-3-carbonyl)-4-azaspiro[2.5]octane-7-carboxamide], in test [1] (Homo sapiens, UM-UC-9, 144 h), the IC50 worked out at 1010 nM. In addition, the AC50 in test [2] was 548 nM.

For the molecule `COc1cc(-c2cc(C(=O)N3[C@@H]4CC[C@H]3C[C@H](C(=O)NC3CCC5(CC3)OCCC5(F)F)C4)n[nH]2)c(F)cn1` (mixture of isomers) [Example 320, (1R,3s,5S)—N-(4,4-difluoro-1-oxaspiro[4.5]decan-8-yl)-8-(5-(5-fluoro-2-methoxypyridin-4-yl)-1H-pyrazole-3-carbonyl)-8-azabicyclo[3.2.1]octane-3-carboxamide], the IC50 in test [1] (Homo sapiens, UM-UC-9, 144 h) stood at 29.5 nM. Moreover, the AC50 in test [2] was found to be 10.4 nM.

Take `COc1cc(-c2cc(C(=O)N3CCC(C(=O)NCC4CCc5n[nH]cc5C4)CC34CC4)[nH]n2)c(F)cn1` (mixture of isomers) [Example 341, (S)-4-(3-(5-fluoro-2-methoxypyridin-4-yl)-1H-pyrazole-5-carbonyl)-N—(((R)-4,5,6,7-tetrahydro-2H-indazol-5-yl)methyl)-4-azaspiro[2.5]octane-7-carboxamide and (S)-4-(3-(5-fluoro-2-methoxypyridin-4-yl)-1H-pyrazole-5-carbonyl)-N—(((S)-4,5,6,7-tetrahydro-2H-indazol-5-yl)methyl)-4-azaspiro[2.5]octane-7-carboxamide]: the IC50 in test [1] was 10.3 nM. Further, the AC50 in test [2] is 5 nM.

In the case of `COc1cc(-c2cc(C(=O)N3CCC(C(=O)NCC4CCn5cncc5C4)CC34CC4)[nH]n2)c(F)cn1` (mixture of isomers) [Example 342, (8)-4-(3-(5-fluoro-2-methoxypyridin-4-yl)-1H-pyrazole-5-carbonyl)-N—(((R)-5,6,7,8-tetrahydroimidazo[1,5-a]pyridin-7-yl)methyl)-4-azaspiro[2.5]octane-7-carboxamide and (S)-4-(3-(5-fluoro-2-methoxypyridin-4-yl)-1H-pyrazole-5-carbonyl)-N—(((S)-5,6,7,8-tetrahydroimidazo[1,5-a]pyridin-7-yl)methyl)-4-azaspiro[2.5]octane-7-carboxamide], the IC50 in test [1] came to 1130 nM. In addition, the AC50 in test [2] is 78.3 nM.

On to `COc1cc(-c2cc(C(=O)N3CCC(C(=O)NCC4CCn5c(C)nnc5C4)CC34CC4)[nH]n2)c(F)cn1` (mixture of isomers) [Example 346, (S)-4-(3-(5-fluoro-2-methoxypyridin-4-yl)-1H-pyrazole-5-carbonyl)-NVR)-3-methyl-5,6,7,8-tetrahydro-[1,2,4]triazolo[4,3-a]pyridin-7-yl)methyl)-4-azaspiro[2.5]octane-7-carboxamide and (8)-4-(3-(5-fluoro-2-methoxypyridin-4-yl)-1H-pyrazole-5-carbonyl)-N—(((S)-3-methyl-5,6,7,8-tetrahydro-[1,2,4]triazolo[4,3-a]pyridin-7-yl)methyl)-4-azaspiro[2.5]octane-7-carboxamide], for which the IC50 in test [1] is greater than 10000 nM. Moreover, the AC50 in test [2] came to 371 nM.

On to `COc1cc(-c2cc(C(=O)N3CCC(NC(=O)C4CCC(O)(C(F)(F)F)CC4)CC34CC4)n[nH]2)c(F)cn1` (mixture of isomers) [Example 347], for which, in test [1], the IC50 was 1860 nM. In test [2], the AC50 is 317 nM.

`COc1cc(-c2cc(C(=O)N3CCC(C(=O)NCC4CCc5nccn5C4)CC34CC4)n[nH]2)c(F)cn1` (mixture of isomers) [Example 356, (S)-4-(5-(5-fluoro-2-methoxypyridin-4-yl)-1H-pyrazole-3-carbonyl)-N—(((S)-5,6,7,8-tetrahydroimidazo[1,2-a]pyridin-6-yl)methyl)-4-azaspiro[2.5]octane-7-carboxamide and (S)-4-(5-(5-fluoro-2-methoxypyridin-4-yl)-1H-pyrazole-3-carbonyl)-N—(((R)-5,6,7,8-tetrahydroimidazo[1,2-a]pyridin-6-yl)methyl)-4-azaspiro[2.5]octane-7-carboxamide]: the IC50 in test [1] was determined as 4790 nM. In addition, the AC50 in test [2] was 113 nM.
